Laboratory results as given in ChEMBL document CHEMBL5036372, “QuatCy-I2 and MHI-I2 in Photodynamic Therapy” (ACS Med Chem Lett, 2022).

Assays:
U-87 MG = experiment: Dark toxicity against human U-87 MG cells incubated for 48 hrs by Alamar blue assay; format: cell-based, U-87MG ATCC
[1] = Terminal half life in CD-1 mouse at 25 nmol, iv measured upto 480 mins by UV-Vis spectrophotometer method; format: ADME, organism-based; conditions: in vivo, read-out: beta t1/2
[2] = Drug localization in lungs of CD-1 mouse at 25 nmol, iv measured after 4 hrs by fluorescence imaging analysis; format: ADME, organism-based, Lung; conditions: in vivo
[3] = Drug localization in kidney of CD-1 mouse at 25 nmol, iv measured after 4 hrs by fluorescence imaging analysis; format: ADME, organism-based; conditions: in vivo
[4] = Clearance in CD-1 mouse at 25 nmol, iv measured upto 480 mins by UV-Vis spectrophotometer method; format: ADME, organism-based; conditions: in vivo
[5] = Biodistribution in bone marrow of mouse implanted with mouse NIT-1 cells at 35 nmol, iv incubated for 4 to 8 hrs by fluorescence imaging analysis; format: ADME, organism-based; conditions: in vivo, time 4-8 hrs
[6] = Phototherapeutic index, ratio of IC50 for dark cytotoxicity against human U-87 MG cells to IC50 for light cytotoxicity against human U-87 MG cells preincubated for 6 to 24 hrs followed by light irradiation for 20 min and measured after 24 hrs dark incubation by Alamar blue assay; format: cell-based, U-87MG ATCC; conditions: time 6-24 hrs, read-out: Ratio IC50
Mus musculus = experiment: Antitumor activity against mouse implanted with mouse NIT-1 cells assessed as tumor to background ratio at 35 nmol, iv incubated for 4 hrs by fluorescence imaging analysis; format: functional
[7] = Drug localization in liver of CD-1 mouse at 25 nmol, iv measured after 4 hrs by fluorescence imaging analysis; format: ADME, organism-based; conditions: in vivo
[8] = Biodistribution in lymph node of mouse implanted with mouse NIT-1 cells at 35 nmol, iv incubated for 4 to 8 hrs by fluorescence imaging analysis; format: ADME, organism-based; conditions: in vivo, time 4-8 hrs
[9] = Half life in CD-1 mouse blood at 25 nmol, iv measured upto 480 mins by UV-Vis spectrophotometer method; format: ADME, organism-based
[10] = Biodistribution in peripheral tissue of mouse implanted with mouse NIT-1 cells at 35 nmol, iv incubated for 4 to 8 hrs by fluorescence imaging analysis; format: ADME, organism-based; conditions: in vivo, time 4-8 hrs
[11] = Drug localization in duodenum of CD-1 mouse at 25 nmol, iv measured after 4 hrs by fluorescence imaging analysis; format: ADME, organism-based; conditions: in vivo

SMILES	IC50 (U-87 MG)	half-life [1]	Drug uptake [2]	Drug uptake [3]	clearance [4]	Drug uptake [5]	selectivity ratio at 24 h [6]	Ratio (Mus musculus)	Drug uptake [7]	Drug uptake [8]	half-life [9]	Drug uptake [10]	Drug uptake [11]
CC1(C)C(/C=C/C2=C(Cl)C(=C/C=C3/N(CCCCCC(=O)O)c4ccccc4C3(C)C)/CCC2)=[N+](CCCCCC(=O)O)c2ccccc21	19.2 µM												
CC1(C)C(/C=C/C2=C(Cl)C(=C/C=C3/N(CCCCCC(=O)O)c4ccc(I)cc4C3(C)C)/C[N+](C)(C)C2)=[N+](CCCCCC(=O)O)c2ccc(I)cc21	62.4 µM	0.917 h	Not Active	Active	5 mL/min/kg	Active	72.8	8.98	Active	Active			
CC1(C)C(/C=C/C2=C(Cl)C(=C/C=C3/N(CCCCCC(=O)O)c4ccccc4C3(C)C)/C[N+](C)(C)C2)=[N+](CCCCCC(=O)O)c2ccccc21	> 100 µM												
CC1(C)C(/C=C/C2=C(Cl)C(=C/C=C3/N(CCCCCC(=O)O)c4ccc(I)cc4C3(C)C)/CCC2)=[N+](CCCCCC(=O)O)c2ccc(I)cc21	11.4 µM				0.2 mL/min/kg		2.56	6.5	Active		1.93 h	Active	Active
